Tests used:
large crabgrass = experiment: Test Example 5: foliar treatment on upland field (Table 6); type: in vivo, Digitaria sanguinalis; parameters: key: 0: little difference in the degree of germination or growth between the treated plants and the untreated plants at the time of examination; 10: the treated plants died completely or their germination or growth was completely inhibited; details: 125 g/ha, 19 days after application, index 0 to 10
Method: In the examples, the compounds are identified by the Compound Numbers as in Tables 1 to 3. […] A pot for plug seedlings seeded with large crabgrass. The test plant was grown in a greenhouse for 14 days, then transplanted into a plastic pot having an area of 17×12 cm^2 and a depth of 7 cm, and further the test plants were grown in the greenhouse for 8 days. Then each of compounds listed below was formulated into an emulsifiable concentrate according to Formulation Example 2 and then diluted to the prescribed amount with water containing a spreading agent and the dilution was uniformly sprayed over the foliage of the test plants with sprayer at a rate of 1000 liters per hectare. After the application, the test plants were grown in the greenhouse for 19 days, and the herbicidal activity were determined.

barnyardgrass [1] = experiment: Test Example 3: foliar treatment on upland field (Table 4); type: in vivo, Echinochloa crus-galli; parameters: key: 0: little difference in the degree of germination or growth between the treated plants and the untreated plants at the time of examination; 10: the treated plants died completely or their germination or growth was completely inhibited; details: examined 16 days after application, index 0-10
Method: (§1) In the examples, the compounds are identified by the Compound Numbers as in Tables 1 to 3. […] A cylindrical plastic pot having a diameter of 10 cm and a depth of 10 cm was filled with soil and seeded with ivyleaf momingglory, velvetleaf and barnyardgrass. These test plants were grown in a greenhouse for 10 days. Then each of compounds listed below was formulated into an emulsifiable concentrate according to Formulation Example 2 and then diluted to the prescribed amount with water containing a spreading agent and the dilution was uniformly sprayed over the foliage of the test plants with sprayer at a rate of 1000 liters per hectare. After the application, the test plants were grown in the greenhouse for 16 days, and the herbicidal activity were determined.

velvetleaf [2] = experiment: Test Example 2: soil surface treatment on upland field; type: in vivo, Abutilon theophrasti; details: 500 g/ha, 12 days after application
Source text: (§2) In the examples, the compounds are identified by the Compound Numbers as in Tables 1 to 3. […] A cylindrical plastic pot having a diameter of 10 cm and a depth of 10 cm was filled with soil and seeded with velvetleaf. Then each of compounds 1-1, 2-1, 2-2, 3-1 and 3-101 was formulated into an emulsifiable concentrate according to Formulation Example 2 and then diluted to the prescribed amount with water and dilution was uniformly sprayed over the surface of the soil with sprayer at a rate of 1000 liters per hectare. After the application, the test plants were grown in a greenhouse for 12 days, and the herbicidal activity was examined.

ivyleaf morningglory [3] = experiment: Test Example 1: foliar treatment on upland field; type: in vivo, Ipomoea hederacea; details: 125 g/ha, 8 days after application
Method: (§3) In the examples, the compounds are identified by the Compound Numbers as in Tables 1 to 3.
(§4) A cylindrical plastic pot having a diameter of 10 cm and a depth of 10 cm was filled with soil and seeded with ivyleaf momingglory, velvetleaf and bamyardgrass. These test plants were grown in a greenhouse for 9 days. Then each of compounds 1-1, 2-1, 2-2, 3-1 and 3-101 was formulated into an emulsifiable concentrate according to Formulation Example 2 and then diluted to the prescribed amount with water containing a spreading agent and the dilution was uniformly sprayed over the foliage of the test plants with sprayer at a rate of 1000 liters per hectare. After the application, the test plants were grown in the greenhouse for 8 days, and the herbicidal activity were determined.

velvetleaf [4] = experiment: Test Example 1: foliar treatment on upland field; type: in vivo, Abutilon theophrasti; details: 125 g/ha, 8 days after application
Method: as §3, §4

velvetleaf [5] = experiment: Test Example 3: foliar treatment on upland field (Table 4); type: in vivo, Abutilon theophrasti; parameters: key: 0: little difference in the degree of germination or growth between the treated plants and the untreated plants at the time of examination; 10: the treated plants died completely or their germination or growth was completely inhibited; details: examined 16 days after application, index 0-10
Method: as §1

barnyardgrass [6] = experiment: Test Example 4: soil surface treatment on upland field (Table 5); type: in vivo, Echinochloa crus-galli; parameters: key: 0: little difference in the degree of germination or growth between the treated plants and the untreated plants at the time of examination; 10: the treated plants died completely or their germination or growth was completely inhibited; details: 500 g/ha active ingredient, examined 12 days after application, index 0-10
Source text: as §2, with “seeded ivyleaf morningglory, velvetleaf and barnyardgrass.” for “seeded with velvetleaf.”, “compounds listed below” for “compounds 1-1, 2-1, 2-2, 3-1 and 3-101”, “at the” for “at a”

ivyleaf morningglory [7] = experiment: Test Example 3: foliar treatment on upland field (Table 4); type: in vivo, Ipomoea hederacea; parameters: key: 0: little difference in the degree of germination or growth between the treated plants and the untreated plants at the time of examination; 10: the treated plants died completely or their germination or growth was completely inhibited; details: examined 16 days after application, index 0-10
Method: as §1

barnyardgrass [8] = experiment: Test Example 1: foliar treatment on upland field; type: in vivo, Echinochloa crus-galli; details: 125 g/ha, 8 days after application
Method: as §3, §4

ivyleaf morningglory [9] = experiment: Test Example 4: soil surface treatment on upland field (Table 5); type: in vivo, Ipomoea hederacea; parameters: key: 0: little difference in the degree of germination or growth between the treated plants and the untreated plants at the time of examination; 10: the treated plants died completely or their germination or growth was completely inhibited; details: 500 g/ha active ingredient, examined 12 days after application, index 0-10
Source text: as §2, with “seeded ivyleaf morningglory, velvetleaf and barnyardgrass.” for “seeded with velvetleaf.”, “compounds listed below” for “compounds 1-1, 2-1, 2-2, 3-1 and 3-101”, “at the” for “at a”

velvetleaf [10] = experiment: as above; type: in vivo, Abutilon theophrasti; parameters: key: 0: little difference in the degree of germination or growth between the treated plants and the untreated plants at the time of examination; 10: the treated plants died completely or their germination or growth was completely inhibited; details: 500 g/ha active ingredient, examined 12 days after application, index 0-10
Source text: as §2, with “seeded ivyleaf morningglory, velvetleaf and barnyardgrass.” for “seeded with velvetleaf.”, “compounds listed below” for “compounds 1-1, 2-1, 2-2, 3-1 and 3-101”, “at the” for “at a”

CCOC(=O)C(C)Oc1cccc(COc2cc(-n3c(=O)cc(C(F)(F)F)n(C)c3=O)c(F)cc2Cl)c1 (stereo not shown) [Compound 2-2, Ethyl 2-[3-({2-chloro-4-fluoro-5-[3-methyl-2,6-dioxo-4-(trifluoromethyl)-1,2,3,6-tetrahydropyrimidine-1-yl]phenoxy}methyl)phenoxy]propionate]
completely controlled: germination of velvetleaf (velvetleaf [2]) | growth of ivyleaf morningglory (ivyleaf morningglory [3]) | growth of velvetleaf (velvetleaf [4]) | growth of barnyardgrass (barnyardgrass [8])
10: Herbicidal effect Large crabgrass (large crabgrass) | Herbicidal effect Barnyardgrass (barnyardgrass [1]; 125 g/ha active ingredient) | Herbicidal effect Velvetleaf (velvetleaf [5]; 125 g/ha active ingredient) | Herbicidal effect Barnyardgrass (barnyardgrass [6]) | Herbicidal effect Ivyleaf morningglory (ivyleaf morningglory [7]; 125 g/ha active ingredient) | Herbicidal effect Ivyleaf morningglory (ivyleaf morningglory [9]) | Herbicidal effect Velvetleaf (velvetleaf [10])

COC(=O)C(C)Oc1cccc(C(C)Oc2cc(-n3c(=O)cc(C(F)(F)F)n(C)c3=O)c(F)cc2Cl)c1 (stereo not shown) [Compound 2-21, methyl 2-[3-(1-{2-chloro-4-fluoro-5-[3-methyl-2,6-dioxo-4-(trifluoromethyl)-1,2,3,6-tetrahydropyrimidine-1-yl]phenoxy}ethyl)phenoxy]propionate]
10: Herbicidal effect Large crabgrass (large crabgrass) | Herbicidal effect Barnyardgrass (barnyardgrass [1]; 32 g/ha active ingredient) | Herbicidal effect Velvetleaf (velvetleaf [5]; 32 g/ha active ingredient) | Herbicidal effect Barnyardgrass (barnyardgrass [6]) | Herbicidal effect Ivyleaf morningglory (ivyleaf morningglory [7]; 32 g/ha active ingredient) | Herbicidal effect Ivyleaf morningglory (ivyleaf morningglory [9]) | Herbicidal effect Velvetleaf (velvetleaf [10])

COC(=O)C(C)Oc1cc(COc2cc(-n3c(=O)cc(C(F)(F)F)n(C)c3=O)c(F)cc2Cl)ccc1Cl (stereo not shown) [Compound 2-41, Methyl 2-[2-chloro-5-({2-chloro-4-fluoro-5-[3-methyl-2,6-dioxo-4-(trifluoromethyl)-1,2,3,6-tetrahydropyrimidine-1-yl]phenoxy}methyl)phenoxy]propionate]
10: Herbicidal effect Large crabgrass (large crabgrass) | Herbicidal effect Barnyardgrass (barnyardgrass [1]; 125 g/ha active ingredient) | Herbicidal effect Velvetleaf (velvetleaf [5]; 125 g/ha active ingredient) | Herbicidal effect Barnyardgrass (barnyardgrass [6]) | Herbicidal effect Ivyleaf morningglory (ivyleaf morningglory [7]; 125 g/ha active ingredient) | Herbicidal effect Ivyleaf morningglory (ivyleaf morningglory [9]) | Herbicidal effect Velvetleaf (velvetleaf [10])

COC(=O)C(C)Oc1cc(COc2cc(-n3c(=O)cc(C(F)(F)F)n(C)c3=O)c(F)cc2Cl)ccc1OC (stereo not shown) [Compound 2-61, Methyl 2-[5-({2-chloro-4-fluoro-5-[3-methyl-2,6-dioxo-4-(trifluoromethyl)-1,2,3,6-tetrahydropyrimidine-1-yl]phenoxy}methyl)-2-methoxyphenoxy]propionate]
10: Herbicidal effect Large crabgrass (large crabgrass) | Herbicidal effect Barnyardgrass (barnyardgrass [1]; 125 g/ha active ingredient) | Herbicidal effect Velvetleaf (velvetleaf [5]; 125 g/ha active ingredient) | Herbicidal effect Barnyardgrass (barnyardgrass [6]) | Herbicidal effect Ivyleaf morningglory (ivyleaf morningglory [7]; 125 g/ha active ingredient) | Herbicidal effect Ivyleaf morningglory (ivyleaf morningglory [9]) | Herbicidal effect Velvetleaf (velvetleaf [10])

COC(=O)C(C)Oc1cc(COc2cc(-n3c(=O)cc(C(F)(F)F)n(C)c3=O)c(F)cc2Cl)ccc1C (stereo not shown) [Compound 2-101, Methyl 2-[5-({2-chloro-4-fluoro-5-[3-methyl-2,6-dioxo-4-(trifluoromethyl)-1,2,3,6-tetrahydropyrimidine-1-yl]phenoxy}methyl)-2-methylphenoxy]propionate]
10: Herbicidal effect Large crabgrass (large crabgrass) | Herbicidal effect Barnyardgrass (barnyardgrass [1]; 125 g/ha active ingredient) | Herbicidal effect Velvetleaf (velvetleaf [5]; 125 g/ha active ingredient) | Herbicidal effect Barnyardgrass (barnyardgrass [6]) | Herbicidal effect Ivyleaf morningglory (ivyleaf morningglory [7]; 125 g/ha active ingredient) | Herbicidal effect Ivyleaf morningglory (ivyleaf morningglory [9]) | Herbicidal effect Velvetleaf (velvetleaf [10])

COC(=O)C(C)Oc1ccc(Cl)c(COc2cc(-n3c(=O)cc(C(F)(F)F)n(C)c3=O)c(F)cc2Cl)c1Cl (stereo not shown) [Compound 2-161, Methyl 2-[2,4-dichloro-3-({2-chloro-4-fluoro-5-[3-methyl-2,6-dioxo-4-(trifluoromethyl)-1,2,3,6-tetrahydropyrimidine-1-yl]phenoxy}methyl)phenoxy]propionate]
6: Herbicidal effect Ivyleaf morningglory (ivyleaf morningglory [9])
10: Herbicidal effect Large crabgrass (large crabgrass) | Herbicidal effect Barnyardgrass (barnyardgrass [1]; 125 g/ha active ingredient) | Herbicidal effect Velvetleaf (velvetleaf [5]; 125 g/ha active ingredient) | Herbicidal effect Ivyleaf morningglory (ivyleaf morningglory [7]; 125 g/ha active ingredient) | Herbicidal effect Velvetleaf (velvetleaf [10])
5: Herbicidal effect Barnyardgrass (barnyardgrass [6])

COC(=O)C(C)Oc1ccc(Cl)c(COc2cc(-n3c(=O)cc(C(F)(F)F)n(C)c3=O)c(F)cc2Cl)c1 (stereo not shown) [Compound 2-187, Methyl 2-[4-chloro-3-({2-chloro-4-fluoro-5-[3-methyl −2,6-dioxo-4-(trifluoromethyl)-1,2,3,6-tetrahydropyrimidine-1-yl]phenoxy}methyl)phenoxy]propionate]
10: Herbicidal effect Large crabgrass (large crabgrass) | Herbicidal effect Barnyardgrass (barnyardgrass [1]; 125 g/ha active ingredient) | Herbicidal effect Velvetleaf (velvetleaf [5]; 125 g/ha active ingredient) | Herbicidal effect Ivyleaf morningglory (ivyleaf morningglory [7]; 125 g/ha active ingredient) | Herbicidal effect Ivyleaf morningglory (ivyleaf morningglory [9]) | Herbicidal effect Velvetleaf (velvetleaf [10])
9: Herbicidal effect Barnyardgrass (barnyardgrass [6])

COC(=O)C(C)Oc1ccccc1COc1cc(-n2c(=O)cc(C(F)(F)F)n(C)c2=O)c(F)cc1Cl (stereo not shown) [Compound 3-1, methyl 2-[2-({2-chloro-4-fluoro-5-[3-methyl-2,6-dioxo-4-(trifluoromethyl)-1,2,3,6-tetrahydropyrimidine-1-yl]phenoxy}methyl)phenoxy]propionate]
completely controlled: germination of velvetleaf (velvetleaf [2]) | growth of ivyleaf morningglory (ivyleaf morningglory [3]) | growth of velvetleaf (velvetleaf [4]) | growth of barnyardgrass (barnyardgrass [8])

CCc1ccc(COc2cc(-n3c(=O)cc(C(F)(F)F)n(C)c3=O)c(F)cc2Cl)c(OC(C)C(=O)OC)c1 (stereo not shown) [Compound 3-101, Methyl 2-[2-({2-chloro-4-fluoro-5-[3-methyl-2,6-dioxo-4-(trifluoromethyl)-1,2,3,6-tetrahydropyrimidine-1-yl]phenoxy}methyl)-5-ethylphenoxy]propionate]
completely controlled: germination of velvetleaf (velvetleaf [2]) | growth of ivyleaf morningglory (ivyleaf morningglory [3]) | growth of velvetleaf (velvetleaf [4]) | growth of barnyardgrass (barnyardgrass [8])
